Experimental data reported in patent US20250270172A1, “Pyrimidine Derivatives As Modulators of the 5-HT2A Serotonin Receptor Useful For The Treatment of Disorders Related Thereto” (Arena Pharmaceuticals, Inc., priority 2020, published 2025).
Where two headings read alike, the source gives them in different places.

Molecular target: 5-HT2A (Homo sapiens (Human), UniProt P28223)
Experiment: Radioligand binding assay, [^3H]5-HT competition, 5-HT2A
Settings: read-out: 5-HT2A serotonin binding Ki value
[1] = [^3H]5-HT radioligand, membranes of HEK293 cells expressing recombinant 5-HT2A, Ki from IC50 by Cheng-Prusoff

Sequence of 5-HT2A (P28223 whole entry): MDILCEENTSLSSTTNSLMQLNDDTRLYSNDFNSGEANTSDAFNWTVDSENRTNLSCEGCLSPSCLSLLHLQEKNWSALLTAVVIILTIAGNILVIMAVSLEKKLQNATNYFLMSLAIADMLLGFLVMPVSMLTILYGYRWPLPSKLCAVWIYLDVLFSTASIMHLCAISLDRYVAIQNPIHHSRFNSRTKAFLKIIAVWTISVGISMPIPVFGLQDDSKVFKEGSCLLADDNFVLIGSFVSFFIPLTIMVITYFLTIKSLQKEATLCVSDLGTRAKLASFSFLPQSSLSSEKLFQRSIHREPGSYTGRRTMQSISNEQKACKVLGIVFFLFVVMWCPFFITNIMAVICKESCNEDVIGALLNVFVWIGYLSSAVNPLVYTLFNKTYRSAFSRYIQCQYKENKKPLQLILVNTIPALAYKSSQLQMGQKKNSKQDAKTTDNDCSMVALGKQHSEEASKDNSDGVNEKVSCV

Ki [nM] | Compound | Ki [1] [nM]
– | Cc1ncnc(C)c1-c1cc(NC(=O)c2cccc(F)c2)ccc1OCCN1CCC1 [Compound 320, N-(4-(2-(azetidin-1-yl)ethoxy)-3-(4,6-dimethylpyrimidin-5-yl)phenyl)-3-fluorobenzamide] | 1.77
– | Cc1cccc(C(=O)Nc2ccc(OCCN3CCC3)c(-c3c(C)ncnc3C)c2)c1 [Compound 322, N-(4-(2-(azetidin-1-yl)ethoxy)-3-(4,6-dimethylpyrimidin-5-yl)phenyl)-3-methylbenzamide] | 3.39
– | Cc1ccc(C(=O)Nc2ccc(OCCN3CCC3)c(-c3c(C)ncnc3C)c2)cc1 [Compound 323, N-(4-(2-(azetidin-1-yl)ethoxy)-3-(4,6-dimethylpyrimidin-5-yl)phenyl)-4-methylbenzamide] | 3.77
– | Cc1ncnc(C)c1-c1cc(NC(=O)c2ccccc2C#N)ccc1OCCN1CCC1 [Compound 324, N-(4-(2-(azetidin-1-yl)ethoxy)-3-(4,6-dimethylpyrimidin-5-yl)phenyl)-2-cyanobenzamide] | 59700
– | Cc1ncnc(C)c1-c1cc(NC(=O)c2ccc(C#N)cc2)ccc1OCCN1CCC1 [Compound 326, N-(4-(2-(azetidin-1-yl)ethoxy)-3-(4,6-dimethylpyrimidin-5-yl)phenyl)-4-cyanobenzamide] | 13.7
– | Cc1cnn(C)c1C(=O)Nc1ccc(OCCN2CCC2)c(-c2c(C)ncnc2C)c1 [Compound 327, N-(4-(2-(azetidin-1-yl)ethoxy)-3-(4,6-dimethylpyrimidin-5-yl)phenyl)-1,4-dimethyl-1H-pyrazole-5-carboxamide] | 15.9
– | Cc1ncnc(C)c1-c1cc(NC(=O)C2(CF)CC2)ccc1OCCN1CCC1 [Compound 328, N-(4-(2-(azetidin-1-yl)ethoxy)-3-(4,6-dimethylpyrimidin-5-yl)phenyl)-1-(fluoromethyl)cyclopropane-1-carboxamide] | 13.6
– | Cc1ncnc(C)c1-c1cc(NC(=O)Cc2nccs2)ccc1OCCN1CCC1 [Compound 329, N-(4-(2-(azetidin-1-yl)ethoxy)-3-(4,6-dimethylpyrimidin-5-yl)phenyl)-2-(thiazol-2-yl)acetamide] | 11.5
– | Cc1ncnc(C)c1-c1cc(NC(=O)c2ncccc2F)ccc1OCCN1CCC1 [Compound 330, N-(4-(2-(azetidin-1-yl)ethoxy)-3-(4,6-dimethylpyrimidin-5-yl)phenyl)-3-fluoropicolinamide] | 334
– | Cc1ncnc(C)c1-c1cc(NC(=O)c2cnccc2F)ccc1OCCN1CCC1 [Compound 331, N-(4-(2-(azetidin-1-yl)ethoxy)-3-(4,6-dimethylpyrimidin-5-yl)phenyl)-4-fluoronicotinamide] | 23.7
– | Cc1ncnc(C)c1-c1cc(NC(=O)c2ccncc2F)ccc1OCCN1CCC1 [Compound 332, N-(4-(2-(azetidin-1-yl)ethoxy)-3-(4,6-dimethylpyrimidin-5-yl)phenyl)-3-fluoroisonicotinamide] | 18.6
– | Cc1ncnc(C)c1-c1cc(NC(=O)c2ncncc2F)ccc1OCCN1CCC1 [Compound 333, N-(4-(2-(azetidin-1-yl)ethoxy)-3-(4,6-dimethylpyrimidin-5-yl)phenyl)-5-fluoropyrimidine-4-carboxamide] | 224
– | CC(=O)N1CCN(CCOc2ccc(NC(=O)C3CC3)cc2-c2c(C)ncnc2C)CC1 [Compound 334, N-[4-[2-(4-acetylpiperazin-1-yl)ethoxy]-3-(4,6-dimethylpyrimidin-5-yl)phenyl]cyclopropanecarboxamide] | 17.6
– | Cc1ncnc(C)c1-c1cc(NC(=O)C2CC2)ccc1OCCN1CCC(CC(=O)O)CC1 [Compound 335, 2-[1-[2-[4-(cyclopropanecarbonylamino)-2-(4,6-dimethylpyrimidin-5-yl)phenoxy]ethyl]-4-piperidyl]acetic acid] | 196
– | Cc1ncnc(C)c1-c1cc(NC(=O)C2CC2)ccc1OCCN1C[C@@H]2C[C@H]1CO2 [Compound 336, N-[3-(4,6-dimethylpyrimidin-5-yl)-4-[2-[(1S,4S)-2-oxa-5-azabicyclo[2.2.1]heptan-5-yl]ethoxy]phenyl]cyclopropanecarboxamide] | 6.42
– | Cc1ncnc(C)c1-c1cc(NC(=O)C2CC2)ccc1OCCN1[C@@H]2COC[C@H]1C2 [Compound 337, N-[3-(4,6-dimethylpyrimidin-5-yl)-4-[2-[(1S,5R)-3-oxa-6-azabicyclo[3.1.1]heptan-6-yl]ethoxy]phenyl]cyclopropanecarboxamide] | 7.29
485 | Cc1ncnc(C)c1-c1cc(NC(=O)C2CC2)ccc1OCCN1CCC(CC(=O)O)C1 (centres unmarked) [Compound 338, 2-[1-[2-[4-(cyclopropanecarbonylamino)-2-(4,6-dimethylpyrimidin-5-yl)phenoxy]ethyl]pyrrolidin-3-yl]acetic acid] | –
– | Cc1ncnc(C)c1-c1cc(NC(=O)C2CC2)ccc1OCCN1CCN(C(=O)CO)CC1 [Compound 339, N-[3-(4,6-dimethylpyrimidin-5-yl)-4-[2-[4-(2-hydroxyacetyl)piperazin-1-yl]ethoxy]phenyl]cyclopropanecarboxamide] | 18.4

Ki [nM] | Compound | Ki [1] [nM]
– | Cc1ncnc(C)c1-c1cc(NC(=O)C2CC2)ccc1OCCN1CCN(C(=O)C(=O)O)CC1 [Compound 340, 2-[4-[2-[4-(cyclopropanecarbonylamino)-2-(4,6-dimethylpyrimidin-5-yl)phenoxy]ethyl]piperazin-1-yl]-2-oxo-acetic acid] | 374
– | Cc1ncnc(C)c1-c1cc(NC(=O)C2CC2)ccc1OCCN1CCN(C=O)CC1 [Compound 341, N-[3-(4,6-dimethylpyrimidin-5-yl)-4-[2-(4-formylpiperazin-1-yl)ethoxy]phenyl]cyclopropanecarboxamide] | 9.84
– | Cc1ncnc(C)c1-c1cc(NC(=O)C2CC2)ccc1OCCN1CCN(S(C)(=O)=O)CC1 [Compound 342, N-[3-(4,6-dimethylpyrimidin-5-yl)-4-[2-(4-methylsulfonylpiperazin-1yl)ethoxy]phenyl]cyclopropanecarboxamide] | 6.95
– | Cc1ncnc(C)c1-c1cc(NC(=O)C2CC2)ccc1OCCN1CCN2C(=O)OCC2C1 (centres unmarked) [Compound 343, N-[3-(4,6-dimethylpyrimidin-5-yl)-4-[2-(3-oxo-5,6,8,8a-tetrahydro-1H-oxazolo[3,4-a]pyrazin-7-yl)ethoxy]phenyl]cyclopropanecarboxamide] | 48.4
– | Cc1ncnc(C)c1-c1cc(NC(=O)C2CC2)ccc1OCCN1CC2(COC2)C1 [Compound 345, N-(4-(2-(2-oxa-6-azaspiro[3.3]heptan-6-yl)ethoxy)-3-(4,6-dimethylpyrimidin-5-yl)phenyl)cyclopropanecarboxamide] | 19.5
– | Cc1ncnc(C)c1-c1cc(NC(=O)C2CC2)ccc1OCCN1CCN2C(=O)CCC2C1 (centres unmarked) [Compound 346, N-(3-(4,6-dimethylpyrimidin-5-yl)-4-(2-(6-oxohexahydropyrrolo[1,2-a]pyrazin-2 (1H)-yl)ethoxy)phenyl)cyclopropanecarboxamide] | 31
– | Cc1ncnc(C)c1-c1cc(NC(=O)C2CC2)ccc1OCCN1CCC2(CC1)CNC2=O [Compound 347, N-(3-(4,6-dimethylpyrimidin-5-yl)-4-(2-(1-oxo-2,7-diazaspiro[3.5]nonan-7-yl)ethoxy)phenyl)cyclopropanecarboxamide] | 42.3
– | Cc1ncnc(C)c1-c1cc(NC(=O)C2CC2)ccc1OCCN1CCC2(CC1)CC(=O)N2 [Compound 348, N-(3-(4,6-dimethylpyrimidin-5-yl)-4-(2-(2-oxo-1,7-diazaspiro[3.5]nonan-7-yl)ethoxy)phenyl)cyclopropanecarboxamide] | 66.6
– | Cc1ncnc(C)c1-c1cc(NC(=O)C2CC2)ccc1OCCN1CCC2(CCC(=O)O2)CC1 [Compound 349, N-(3-(4,6-dimethylpyrimidin-5-yl)-4-(2-(2-oxo-1-oxa-8-azaspiro[4.5]decan-8-yl)ethoxy)phenyl)cyclopropanecarboxamide] | 12.6
– | Cc1ncnc(C)c1-c1cc(NC(=O)C2CC2)ccc1OCCN1CCC2(CCOC2=O)CC1 [Compound 350, N-(3-(4,6-dimethylpyrimidin-5-yl)-4-(2-(1-oxo-2-oxa-8-azaspiro[4.5]decan-8-yl)ethoxy)phenyl)cyclopropanecarboxamide] | 43.1
– | CO[C@H]1CCN(CCOc2ccc(NC(=O)C3CC3)cc2-c2c(C)ncnc2C)C1 [Compound 352, (S)—N-(3-(4,6-dimethylpyrimidin-5-yl)-4-(2-(3-methoxypyrrolidin-1-yl)ethoxy)phenyl)cyclopropanecarboxamide] | 15.5
– | COCCN(C)CCOc1ccc(NC(=O)C2CC2)cc1-c1c(C)ncnc1C [Compound 354, N-[3-(4,6-dimethylpyrimidin-5-yl)-4-[2-[2-methoxyethyl(methyl)amino]ethoxy]phenyl]cyclopropanecarboxamide] | 32.1
– | CCN(CCOC)CCOc1ccc(NC(=O)C2CC2)cc1-c1c(C)ncnc1C [Compound 355, N-(3-(4,6-dimethylpyrimidin-5-yl)-4-(2-(ethyl (2-methoxyethyl)amino)ethoxy)phenyl)cyclopropanecarboxamide] | 177
– | CCCN(CCOC)CCOc1ccc(NC(=O)C2CC2)cc1-c1c(C)ncnc1C [Compound 356, N-(3-(4,6-dimethylpyrimidin-5-yl)-4-(2-((2-methoxyethyl)(propyl)amino)ethoxy)phenyl)cyclopropanecarboxamide] | 533
– | Cc1ncnc(C)c1-c1cc(NC(=O)C2CC2)ccc1OCCN(C)CCO [Compound 357, N-(3-(4,6-dimethylpyrimidin-5-yl)-4-(2-((2-hydroxyethyl)(methyl)amino)ethoxy)phenyl)cyclopropanecarboxamide] | 47.3
– | CCN(CCO)CCOc1ccc(NC(=O)C2CC2)cc1-c1c(C)ncnc1C [Compound 358, N-(3-(4,6-dimethylpyrimidin-5-yl)-4-(2-(ethyl(2-hydroxyethyl)amino)ethoxy)phenyl)cyclopropanecarboxamide] | 66.7
– | CCCN(CCO)CCOc1ccc(NC(=O)C2CC2)cc1-c1c(C)ncnc1C [Compound 359, N-(3-(4,6-dimethylpyrimidin-5-yl)-4-(2-((2-hydroxyethyl)(propyl)amino)ethoxy)phenyl)cyclopropanecarboxamide] | 102
